Laboratory results taken from PubChem BioAssay AID2060900 (Molecular Pharmacology Branch, DTP, NCI, 2025).

System: 521955-158-R2-J5-PDC complex spheroids, viability
Assay: Anticancer human tumor 521955-158-R2-J5-PDC patient-derived pancreatic carcinoma cell line growth inhibition [RAS]
Settings: for IC50: curve of first compound; for viability, T/C: stronger effect = lower value
In short: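 Multi-cell-type spheroids: tumor cells plus HUVEC endothelial cells and mesenchymal stem cells. RAS-pathway inhibitors were combined with targeted agents, each dosed in half-log steps down from clinical Cmax, or from 10 microM when Cmax was unknown.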

[1] = second compound 0.00316 µM, first compound 0.0316 µM
[2] = second compound 0.00316 µM, first compound 0.1 µM
[3] = second compound 0.00316 µM, first compound 0.316 µM
[4] = second compound 0.00316 µM, first compound 1 µM
[5] = second compound 0.01 µM, first compound 0.0316 µM
[6] = second compound 0.01 µM, first compound 0.1 µM
[7] = second compound 0.01 µM, first compound 0.316 µM
[8] = second compound 0.01 µM, first compound 1 µM
[9] = second compound 0.0316 µM, first compound 0.0316 µM
[10] = second compound 0.0316 µM, first compound 0.1 µM
[11] = second compound 0.0316 µM, first compound 0.316 µM
[12] = second compound 0.0316 µM, first compound 1 µM
[13] = second compound 0.1 µM, first compound 0.0316 µM
[14] = second compound 0.1 µM, first compound 0.1 µM
[15] = second compound 0.1 µM, first compound 0.316 µM
[16] = second compound 0.1 µM, first compound 1 µM
[17] = second compound 0.316 µM, first compound 0.0316 µM
[18] = second compound 0.316 µM, first compound 0.1 µM
[19] = second compound 0.316 µM, first compound 0.316 µM
[20] = second compound 0.316 µM, first compound 1 µM
[21] = second compound 1 µM, first compound 0.0316 µM
[22] = second compound 1 µM, first compound 0.1 µM
[23] = second compound 1 µM, first compound 0.316 µM
[24] = second compound 1 µM, first compound 1 µM
[25] = second compound 0.0316 µM, first compound 0.00316 µM
[26] = second compound 0.0316 µM, first compound 0.01 µM
[27] = second compound 0.1 µM, first compound 0.00316 µM
[28] = second compound 0.1 µM, first compound 0.01 µM
[29] = second compound 0.316 µM, first compound 0.00316 µM
[30] = second compound 0.316 µM, first compound 0.01 µM
[31] = second compound 1 µM, first compound 0.00316 µM
[32] = second compound 1 µM, first compound 0.01 µM
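Note: compound exposure lasted seven days before the viability read.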
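Throughout, for viability, T/C: spheroids also contain HUVEC endothelial cells and mesenchymal stem cells as stroma.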

CC(Nc1ccc2c(c1)OCCn1cc(N3C(=O)OCC3C(F)F)nc1-2)C(N)=O (stereo unspecified) + C=CC(=O)N1CCN(c2nc(OCC3CCCN3C)nc3c(F)c(-c4nc(N)cc(C)c4C(F)(F)F)c(Cl)cc23)C(C)C1
IC50 (second compound 0.00316 µM): 1320 nM
IC50 (second compound 0.01 µM): 419 nM
IC50 (second compound 0.0316 µM): 634 nM
IC50 (second compound 0.1 µM): 833 nM
IC50 (second compound 0.316 µM): 261 nM
IC50 (second compound 1 µM): 180 nM
viability, T/C [1]: 66.7%
viability, T/C [2]: 70.9%
viability, T/C [3]: 43%
viability, T/C [4]: 64.7%
viability, T/C (second compound 0.00316 µM, first compound 3.16 µM): 38.4%
viability, T/C (second compound 0.00316 µM, first compound 10 µM): 19.8%
viability, T/C [5]: 64.1%
viability, T/C [6]: 58.3%
viability, T/C [7]: 43.5%
viability, T/C [8]: 52%
viability, T/C (second compound 0.01 µM, first compound 3.16 µM): 35.5%
viability, T/C (second compound 0.01 µM, first compound 10 µM): 22.9%
viability, T/C [9]: 56.9%
viability, T/C [10]: 71.3%
viability, T/C [11]: 43.5%
viability, T/C [12]: 53.3%
viability, T/C (second compound 0.0316 µM, first compound 3.16 µM): 30.4%
viability, T/C (second compound 0.0316 µM, first compound 10 µM): 19.7%
viability, T/C [13]: 67.3%
viability, T/C [14]: 54.8%
viability, T/C [15]: 67.6%
viability, T/C [16]: 45.6%
viability, T/C (second compound 0.1 µM, first compound 3.16 µM): 28.8%
viability, T/C (second compound 0.1 µM, first compound 10 µM): 19.4%
viability, T/C [17]: 72.4%
viability, T/C [18]: 90.1%
viability, T/C [19]: 43.8%
viability, T/C [20]: 42.7%
viability, T/C (second compound 0.316 µM, first compound 3.16 µM): 33.3%
viability, T/C (second compound 0.316 µM, first compound 10 µM): 22.5%
viability, T/C [21]: 124%
viability, T/C [22]: 53.4%
viability, T/C [23]: 48.9%
viability, T/C [24]: 35.4%
viability, T/C (second compound 1 µM, first compound 3.16 µM): 33%
viability, T/C (second compound 1 µM, first compound 10 µM): 19.8%

C=CC(=O)Nc1cc(Nc2nccc(-c3cn(C)c4ccccc34)n2)c(OC)cc1N(C)CCN(C)C + C#Cc1c(F)ccc2cc(O)cc(-c3ncc4c(N5CC6CCC(C5)N6)nc(OCC56CCCN5CC(F)C6)nc4c3F)c12
IC50 (second compound 0.0316 µM): 39.2 nM
IC50 (second compound 0.1 µM): 217 nM
IC50 (second compound 0.316 µM): 47.1 nM
IC50 (second compound 1 µM): < 3.16 nM
IC50 (second compound 3.16 µM): < 3.16 nM
IC50 (second compound 10 µM): < 3.16 nM
viability, T/C [25]: 65.3%
viability, T/C [26]: 56%
viability, T/C [9]: 52.8%
viability, T/C [10]: 43.5%
viability, T/C [11]: 38.3%
viability, T/C [12]: 29.6%
viability, T/C [27]: 46%
viability, T/C [28]: 59.9%
viability, T/C [13]: 49.7%
viability, T/C [14]: 59.8%
viability, T/C [15]: 46.7%
viability, T/C [16]: 22.9%
viability, T/C [29]: 51%
viability, T/C [30]: 58.8%
viability, T/C [17]: 47.1%
viability, T/C [18]: 48.6%
viability, T/C [19]: 34.5%
viability, T/C [20]: 22.6%
viability, T/C [31]: 46.8%
viability, T/C [32]: 48.3%
viability, T/C [21]: 51.1%
viability, T/C [22]: 43.4%
viability, T/C [23]: 34.4%
viability, T/C [24]: 17.8%
viability, T/C (second compound 3.16 µM, first compound 0.00316 µM): 43%
viability, T/C (second compound 3.16 µM, first compound 0.01 µM): 53.4%
viability, T/C (second compound 3.16 µM, first compound 0.0316 µM): 42.5%
viability, T/C (second compound 3.16 µM, first compound 0.1 µM): 49.9%
viability, T/C (second compound 3.16 µM, first compound 0.316 µM): 27.8%
viability, T/C (second compound 3.16 µM, first compound 1 µM): 15%
viability, T/C (second compound 10 µM, first compound 0.00316 µM): 32.5%
viability, T/C (second compound 10 µM, first compound 0.01 µM): 43.9%
viability, T/C (second compound 10 µM, first compound 0.0316 µM): 32.2%
viability, T/C (second compound 10 µM, first compound 0.1 µM): 34.2%
viability, T/C (second compound 10 µM, first compound 0.316 µM): 26.1%
viability, T/C (second compound 10 µM, first compound 1 µM): 3.73%

C=CC(=O)Nc1cc(Nc2nccc(-c3cn(C)c4ccccc34)n2)c(OC)cc1N(C)CCN(C)C + C=CC(=O)N1CCN(c2nc(OCC3CCCN3C)nc3c(F)c(-c4nc(N)cc(C)c4C(F)(F)F)c(Cl)cc23)C(C)C1
IC50 (second compound 0.00316 µM): 970 nM
IC50 (second compound 0.01 µM): 898 nM
IC50 (second compound 0.0316 µM): > 1000 nM
IC50 (second compound 0.1 µM): 757 nM
IC50 (second compound 0.316 µM): 636 nM
IC50 (second compound 1 µM): 757 nM
viability, T/C (second compound 0.00316 µM, first compound 0.00316 µM): 106%
viability, T/C (second compound 0.00316 µM, first compound 0.01 µM): 78.6%
viability, T/C [1]: 90.5%
viability, T/C [2]: 81.2%
viability, T/C [3]: 86.4%
viability, T/C [4]: 48.9%
viability, T/C (second compound 0.01 µM, first compound 0.00316 µM): 87.8%
viability, T/C (second compound 0.01 µM, first compound 0.01 µM): 63.4%
viability, T/C [5]: 77.8%
viability, T/C [6]: 108%
viability, T/C [7]: 74.1%
viability, T/C [8]: 47.5%
viability, T/C [25]: 80.1%
viability, T/C [26]: 63.5%
viability, T/C [9]: 96.5%
viability, T/C [10]: 107%
viability, T/C [11]: 68.1%
viability, T/C [12]: 50.4%
viability, T/C [27]: 68.1%
viability, T/C [28]: 81.4%
viability, T/C [13]: 74.8%
viability, T/C [14]: 85.3%
viability, T/C [15]: 73.6%
viability, T/C [16]: 42.2%
viability, T/C [29]: 121%
viability, T/C [30]: 82.2%
viability, T/C [17]: 95.9%
viability, T/C [18]: 70.1%
viability, T/C [19]: 67.8%
viability, T/C [20]: 39%
viability, T/C [31]: 106%
viability, T/C [32]: 72.8%
viability, T/C [21]: 78.7%
viability, T/C [22]: 73.9%
viability, T/C [23]: 64%
viability, T/C [24]: 42.1%
